Paper PMC5439695 (PLoS ONE, 2017)
Like-named read-outs stand apart in the source and are kept apart here.

Columns and labels:
[1] = test system: HEK293 and HepG2 cell lines
NRF2 = conditions: Tox21 assay; cited from earlier work

Structure (SMILES) | cytotoxicity kinetics activity profile in the four real-time cytotoxicity assays ([1]; human) | Nrf2 TF activity (in words) (NRF2) | cytotoxicity kinetics activity profile in the four real-time cytotoxicity assays [1]
CC/C(=C(/CC)c1ccc(O)cc1)c1ccc(O)cc1 [Diethylstilbestrol, reference compound] | active only in HEK293[glo] | increased Nrf2 TF activity | 
CC(C)C(=O)Nc1ccc([N+](=O)[O-])c(C(F)(F)F)c1 [Flutamide, reference compound] | active only in HEK293[glo] | increased Nrf2 TF activity | 
CC(C)(O)C(=O)Nc1ccc([N+](=O)[O-])c(C(F)(F)F)c1 [Hydroxyflutamide, reference compound] | active only in HEK293[glo] | increased Nrf2 TF activity | 
CC12CC1(C)C(=O)N(c1cc(Cl)cc(Cl)c1)C2=O (centres unmarked) [procymidone, reference compound] |  | Weak Nrf2 activity | no activity in all four real-time cytotoxicity assays
